One data set concerns serum active GLP-1. Description: Serum active GLP-1 in NASH mouse models (STZ-induced, MCD-induced). It is filed as in vivo, mice. To be noted: FIG. 6A-6B. As for the experimental part:
FIG. 6A. Graph illustrating the serum active GLP-1 levels in NCD-mice (“Chow”) and RFD-fed, STZ-induced NASH mice that were treated with vehicle, A3334, A3051, selonsertib, and ocaliva.
FIG. 6B. Graph illustrating the serum active GLP-1 levels in NCD-mice (“Chow”) and RFD-fed, methionine-choline deficient diet (MCD)-induced NASH mice that were treated with vehicle, A3334, A3051, selonsertib, ocaliva (“OCA”), and A3486.
Blood chemistry. Total blood of mice was collected by cardiac puncture. The blood was allowed to clot for 30 min and was then centrifuged for 30 min at 3,000×g to obtain supernatant to measure active GLP-1 concentration. ELISA assay kits were used to assess serum active GLP-1 (7-36).

Data set [1] has as its system rat neuronal stem cells (NSCs). Description: Neural stem cell (NSC) differentiation, cell morphology. In kind it is cell-based. To be noted: 0, 1, 5 and 10 μM; 24 hours; medium with bFGF. As for the experimental part:
Neural stem cell (NSCs) culture. NSCs were extracted from the forebrain of E14.5 rats and maintained in an undifferentiated state by culturing in medium containing 10 ng/ml of bFGF (Peprotech). Undifferentiated NSCs (1×10^5) were treated with of each compound (10 μM) and cell morphology was assessed by capturing black and white images of the cells after 24 h.
Referring now to FIG. 7A-7B, NSCs were isolated form E14 mice embryos, and maintained in the maintenance medium (supplemented) with bFGF and EGF. The neuronal differentiation was induced by treating different concentrations of A3051. Cell morphologies were captured at 24 hours after treatment of the indirubin analog 3051 using a bright-field optical microscope.

Data set [2] has as its system β-catenin, CXXC5 and p-GSK3β (S9) in H4/SWE cells. Description: Western blot assay in H4/SWE cells. In kind it is cell-based. To be noted: FIG. 9A. As for the experimental part:
Western blot assay. H4 and H4/SWE Cells were ground with a mortar and pestle before lysis in RIPA buffer (150 mM NaCl, 10 mM Tris, pH 7.2, 0.1% SDS, 1.0% Triton X-100, 1% sodium deoxycholate, and 5 mM EDTA). Samples were separated on 6-12% SDS polyacrylamide gels and transferred onto PROTRAN nitrocellulose membranes (Schleicher and Schuell Co.). The membranes were blocked with PBS containing 5% non-fat dry skim milk and 0.07% (vol/vol) Tween 20 and incubated with antibody specific for β-catenin (1:1,000, Santa Cruz Biotechnology, Inc.), CXXC5 (1:500, Santa Cruz Biotechnology, Inc.), p-GSK3β(S9) (1:500, Santa Cruz Biotechnology, Inc.). The membranes were then incubated with horseradish peroxidase-conjugated anti-rabbit (1:5,000, Bio-Rad Laboratories) or anti-mouse (1:5000, Cell Signaling Technology) IgG secondary antibody. Protein bands were visualized with enhanced chemiluminescence (GE Healthcare) using a luminescent image analyzer, LAS-3000 (Fujifilm). Western blot bands were analyzed using Multi-Gauge V3.0 software (Fujifilm).

The test system of data set [3] is β-catenin in H4/SWE cells. Description: Immunocytochemical analysis of β-catenin in H4/SWE cells. It is filed as cell-based. To be noted: FIG. 9B. As for the experimental part: Immunocytochemical analysis. H4 or H4/SWE cells treated with each compound were washed with PBS and fixed in 4% (wt/vol) paraformaldehyde (PFA) in PBS for 15 min at room temperature. The cells were then washed with PBS and permeabilized with 0.1% (vol/vol) Triton X-100 in PBS for 15 min. After washing with PBS, the cells were incubated with 10% bovine serum albumin (BSA) in PBS for 30 min and then with antibodies specific for β-catenin (1:100; BD) overnight at 4° C. The cells were washed in PBS and incubated with Alexa Fluor 488—conjugated IgG secondary antibody (1:400; Molecular Probes) at room temperature for 1 h. Cell nuclei were counterstained with DAPI for 10 min and the stained samples were examined under a LSM510 META microscope.

For data set [4], the system named is secreted human amyloid β-42 in H4/SWE cells. Briefly: Human Aβ42 ELISA assay in H4/SWE cells. In kind it is cell-based. To be noted: 24 h, FIG. 10. As for the experimental part:
Human Aβ42 ELISA assay. H4 or H4/SWE cells were cultured in Dulbecco's Modified Eagle's Medium (DMEM, Gibco) containing 10% fetal bovine serum (FBS) and grown to confluence in a 5% CO2 and 95% air humidified atmosphere. The cells were seeded in 6-well plate in DMEM supplemented with 10% FBS and allowed to adhere overnight. The cells were treated with each compound (1˜20 uM) for 24 h and collected in 1 ml of medium. The samples were treated with protease inhibitor cocktail (PIC) to avoid the degradation of Amyloid β by protease and centrifuged at 3000 rpm for 3 min. Experiments were performed according to the guidance of Human Aβ42 ELISA Kit protocol (Invitrogen). The amount of secreted Amyloid β was normalized by measuring total protein concentration.

Turning to `CO/N=C1/C(=C2/C(=O)Nc3cc(Cl)c(Cl)cc32)Nc2ccccc21` [Compound A3051, 5,6-dichloroindirubin-3′-methoxime], the “active GLP-1 expression in blood serum” value in the data set with serum active GLP-1 is given as “significantly rescued (increased)”. In addition, the “neural differentiation of NSCs (cell morphology)” value in data set [1] is listed as “induced neural differentiation”. Besides, in data set [2], the “level of CXXC5 (western blot)” value was “decreased”, the “level of β-catenin (western blot)” value is on record as “restored” and the “p-GSK3β (S9) (western blot)” value is “increased”. Besides, the “nuclear translocation of β-catenin” value in data set [3] is “increased”. In addition, in data set [4], the “secretion of Aβ-42” value is on record as “inhibited”.
